Measurements: patent publication US11655268B2, “Nucleoside or nucleotide derivatives, and uses thereof” (ST Pharm Co., Ltd., priority 2018, dated 2023)
Where two headings read alike, the source gives them in different places.

Legend:
Influenza virus B/Lee/40 = test: Cytopathic effect reduction, influenza B Lee in MDCK cells, MTT; type: cell-based; conditions: for Selectivity index FluB Lee: CC50/EC50; for EC50: read-out: Anti-Flu activity EC50 FluB Lee
MERS-CoV = test: microbe, parasite or virus in culture; type: cell-based, MERS virus (MERS-CoV/KOR/KNIH/002_05_2015); conditions: Middle East respiratory syndrome-related coronavirus, Huh-7, 72 h, read-out: EC50 MERS-CoV
DENV = test: Reduction in viral infection, dengue virus in Vero cells, immunofluorescence (4G2 antibody); type: cell-based, Dengue virus New Guinea C (NGC); conditions: 72 h, read-out: EC50 DENV
ZIKV = test: Reduction in viral infection, zika virus in Vero cells, immunofluorescence (4G2 antibody); type: cell-based, Zikavirus (MR766); conditions: 72 h, day 3 after infection
CHIKV = test: Cytopathic effect reduction, Chikungunya virus in Vero cells, MTT; type: cell-based; conditions: 72 h, read-out: EC50 CHIKV
in vitro [1] = conditions: dog
in vitro [2] = conditions: human
[3] = Cytotoxicity (CC50) in Vero cells; conditions: African green monkey
MDCK cells = conditions: read-out: Toxicity CC50, day 3, MTT
hCoV (229E) = test: microbe, parasite or virus in culture; type: cell-based, Human coronavirus hCoV 229E; conditions: MRC5, 72 h; MRC-5 cells, day 3 after infection; read-out: EC50 hCoV (229E)
FIPV = test: Cytopathic effect reduction, FIPV in CRFK cells, MTT; type: cell-based, feline infectious peritonitis virus (FIPV); conditions: Alphacoronavirus 1, 72 h; CRFK cells, day 3 after infection; read-out: EC50 FIPV
[4] = test system: Madin-Darby Canine Kidney (MDCK) cells; conditions: 100 μM for 3 days; cited from earlier work
in vitro [5] = conditions: human; remark: listed apart in the source
in vitro [6] = conditions: cat
[7] = CC50 (CHIKV), Vero cells, CHIKV test, MTT
[8] = CC50 (DENV), Vero cells, DENV test

Row | SMILES | Selectivity index FluB Lee (Influenza virus B/Lee/40) | EC50 (Influenza virus B/Lee/40; MDCK, 72 h) [µM] | EC50 (MERS-CoV) [µM] | EC50 (DENV) [µM] | EC50 (ZIKV) [µM] | EC50 (CHIKV) [µM] | CC50 at 3 days (in vitro [1]) [µM] | CC50 at 3 days (in vitro [2]) [µM] | CC50 at 3 days [3, 7] [µM] | CC50 at 3 days [3, 8] [µM] | CC50 at 3 days ([3]; CC50, Vero cells, ZIKV test) [µM] | EC50 (Influenza virus B/Lee/40) [µM] | CC50 (MDCK cells) [µM] | EC50 (hCoV (229E)) [µM] | EC50 (FIPV) [µM] | cell death [4] | CC50 (in vitro [1]) [µM] | CC50 (in vitro [5]) [µM] | CC50 (in vitro [6]) [µM]
1 | O=C(Nc1ccn(C2O[C@H](CO)[C@@H](O)[C@H]2F)c(=O)n1)c1ccncn1 (stereo in doubt) [Example 36, N-(1-((2S,3R,4R,5R)-3-fluoro-4-hydroxy-5-(hydroxymethyl)tetrahydrofuran-2-yl)-2-oxo-1,2-dihydropyrimidin-4-yl)pyrimidine-4-carboxamide] | >8.8 | 11.4 | > 100 | > 100 | > 100 | 57.7 | > 100 | > 100 | > 100 | > 100 | > 100 |  |  |  |  |  |  |  | 
2 | N#Cc1ccc(C(=O)Nc2ccn(C3O[C@H](CO)[C@@H](O)[C@H]3F)c(=O)n2)nc1 (stereo in doubt) [Example 37, 5-cyano-N-(1-((2S,3R,4R,5R)-3-fluoro-4-hydroxy-5-(hydroxymethyl)tetrahydrofuran-2-yl)-2-oxo-1,2-dihydropyrimidin-4-yl)picolinamide] | >6.6 | 15.1 | > 100 | > 100 | > 100 | 51.7 | > 100 | > 100 | > 100 | > 100 | > 100 |  |  |  |  |  |  |  | 
3 | Nc1ccn([C@@H]2O[C@H](CO)[C@@H](O)[C@H]2F)c(=O)n1 [2′-FdC, reference compound] |  |  |  |  |  |  |  |  |  |  |  | 5.2 | > 100 |  |  |  |  |  | 
4 | Nc1ccn([C@@H]2O[C@H](CO)[C@@H](O)C2(F)F)c(=O)n1 [Gemcitabine, reference compound] | 185.2 | 1.3 | 1.1 |  |  |  |  | > 100 |  |  |  |  |  | 0.44 | 21 | about 50% | 241 | > 100 | 92
